Entries after “also recorded” stand apart in the source; their conditions may differ.
Assays:
Format in all cases: cell-based, rat
[1] = tested on: TH positive cells in primary ventral mesencephalic cell cultures; experiment: MPP+ dose response on TH positive cell number in primary ventral mesencephalic cell cultures; details: 24 hrs exposure, 0.1-10 μM MPP+, n=3; read-out: EC50, TH positive (dopaminergic) cell death
Description: (§1) Primary ventral mesencephalic cell cultures: Primary cell cultures were prepared by dissecting out the ventral mesencephalon from E14 rat foetuses. The dissected tissue was pooled and incubated with 0.1% Trypsin solution. This solution was then removed and replaced with Dulbecco's modified Eagles medium (DMEM) containing 10% foetal bovine serum (FBS) and 0.25% penicillin-streptomycin-neomycin (PSN), and the tissue centrifuged for 1 minute at 2000 rpm at room temperature. The supernatant was then removed, fresh medium was added and the tissue mechanically dissociated using increasing fine bore fire-polished Pasteur pipettes. Cell density was assessed using a haematocytometer and cells were plated in culture medium containing 10% FBS and 0.25% PSN at a density of 1-1.5×10^5 on sterile coverslips coated with 0.01% poly-D-lysine. After 4 days the culture medium was removed and replaced with fresh serum free DMEM prior to treatment with MPP+ or OPN. […]
MPP+ dose response: MPP+ was dissolved in sterile PBS and the primary cell cultures were incubated for 24 hrs with one of the following concentrations of MPP+ : 0.1, 0.5, 1, 2, 5, 10 μM MPP+ or vehicle (PBS). […] An EC50 was calculated (3.076±0.56) and a high (10 μM) or low (2 μM) MPP+ concentration was used to investigate the role of OPN in dopaminergic cell survival. […]

[2] = tested on: TH positive cells in primary ventral mesencephalic cultures; experiment: Survival of TH positive cells in primary ventral mesencephalic cultures without MPP+ treatment; details: 24 hrs incubation, no toxin; listed as OPN
Description: as §1
(§2) Tyrosine hydroxylase (TH) immunohistochemistry: The culture medium was removed from the cells and the coverslips were fixed in 4% paraformaldehyde prior to peroxidase detection of TH using the ABC immunohistochemical method. Coverslips were mounted and examined using a Zeiss Axiophot microscope at a 50× magnification and the number of TH positive cells on each coverslip was manually counted in four fields chosen at random (total area: 8 mm^2).

[3] = tested on: TH positive cells in primary ventral mesencephalic cultures; experiment: Survival of TH positive cells in primary ventral mesencephalic cultures with MPP+ treatment; details: for concentration of maximal efficacy in increasing TH positive cell survival: lowest concentration used; for effect on survival/death of TH positive cells: 24 hrs pretreatment
Description: Primary ventral mesencephalic cell cultures: Primary cell cultures were prepared by dissecting out the ventral mesencephalon from E14 rat foetuses. The dissected tissue was pooled and incubated with 0.1% Trypsin solution. This solution was then removed and replaced with Dulbecco's modified Eagles medium (DMEM) containing 10% foetal bovine serum (FBS) and 0.25% penicillin-streptomycin-neomycin (PSN), and the tissue centrifuged for 1 minute at 2000 rpm at room temperature. The supernatant was then removed, fresh medium was added and the tissue mechanically dissociated using increasing fine bore fire-polished Pasteur pipettes. Cell density was assessed using a haematocytometer and cells were plated in culture medium containing 10% FBS and 0.25% PSN at a density of 1-1.5×10^5 on sterile coverslips coated with 0.01% poly-D-lysine. After 4 days the culture medium was removed and replaced with fresh serum free DMEM prior to treatment with MPP+ or OPN. Each treatment was done in triplicate per experiment and each series of experiments was repeated a further 2 times to give a final n=3.
Manipulation of the OPN system: Cultures were incubated with one of the following treatments for 24 hrs prior to MPP+ administration (either 10 μM or 2 μM MPP+): OPN protein (1, 5, 10, 25, 50 & 100 ng/ml), anti-OPN antibody (26.5, 53, 265, 530 ng/ml and 1.325, 2.65 μg/ml), anti-αv or anti-β3 integrin receptor subunit antibody (0.02, 0.04, 0.2, 0.4, 1 & 2 μg/ml). Control groups received no MPP+ treatment.
as §2

Molecule	EC50 [1] [µM]	effect on viability of TH positive cells [2]	concentration of maximal efficacy in increasing TH positive cell survival ([3]; 2 μM MPP+) [ng/mL]	concentration of maximal efficacy in increasing TH positive cell survival ([3]; 10 μM MPP+) [ng/mL]	effect on survival/death of TH positive cells ([3]; then 2 μM MPP+ for 24 hrs)	effect on survival/death of TH positive cells ([3]; then 2 μM MPP+ for 24 hrs, listed as OPN)	effect on survival/death of TH positive cells ([3]; then 10 μM MPP+ for 24 hrs)	effect on survival/death of TH positive cells ([3]; then 10 μM MPP+ for 24 hrs, listed as OPN)
C[n+]1ccc(-c2ccccc2)cc1 [MPP+]	3.08 ± 0.56							
OPN protein fragment: 15 amino acid fragment of rat osteopontin (SEQ ID NO: 8) containing the RGD αvβ3 integrin binding site (TVDVPDGRGDSLAYG; listed as Rattus norvegicus)		not found to affect the viability; also recorded: no effect	1	1	almost completely protected dopaminergic cells	increased TH cell survival	almost completely protected dopaminergic cells	increased survival of TH positive cells

Reference: US20060264371A1, “Treatment” (Proximagen Ltd., priority 2005, published 2006)
